According to patent publication US11040981B2, “Pyrrolotriazine compounds and methods of inhibiting TAM kinases” (Syros Pharmaceuticals, Inc., priority 2017, dated 2021):

What was measured:
TYRO3 = target: T1, TYRO3 (Homo sapiens, UniProt Q06418); assay: TR-FRET kinase activity assay, TYRO3; type: biochemical; details: ATP at Km, 60 minutes
T1 sequence (Q06418 41-890): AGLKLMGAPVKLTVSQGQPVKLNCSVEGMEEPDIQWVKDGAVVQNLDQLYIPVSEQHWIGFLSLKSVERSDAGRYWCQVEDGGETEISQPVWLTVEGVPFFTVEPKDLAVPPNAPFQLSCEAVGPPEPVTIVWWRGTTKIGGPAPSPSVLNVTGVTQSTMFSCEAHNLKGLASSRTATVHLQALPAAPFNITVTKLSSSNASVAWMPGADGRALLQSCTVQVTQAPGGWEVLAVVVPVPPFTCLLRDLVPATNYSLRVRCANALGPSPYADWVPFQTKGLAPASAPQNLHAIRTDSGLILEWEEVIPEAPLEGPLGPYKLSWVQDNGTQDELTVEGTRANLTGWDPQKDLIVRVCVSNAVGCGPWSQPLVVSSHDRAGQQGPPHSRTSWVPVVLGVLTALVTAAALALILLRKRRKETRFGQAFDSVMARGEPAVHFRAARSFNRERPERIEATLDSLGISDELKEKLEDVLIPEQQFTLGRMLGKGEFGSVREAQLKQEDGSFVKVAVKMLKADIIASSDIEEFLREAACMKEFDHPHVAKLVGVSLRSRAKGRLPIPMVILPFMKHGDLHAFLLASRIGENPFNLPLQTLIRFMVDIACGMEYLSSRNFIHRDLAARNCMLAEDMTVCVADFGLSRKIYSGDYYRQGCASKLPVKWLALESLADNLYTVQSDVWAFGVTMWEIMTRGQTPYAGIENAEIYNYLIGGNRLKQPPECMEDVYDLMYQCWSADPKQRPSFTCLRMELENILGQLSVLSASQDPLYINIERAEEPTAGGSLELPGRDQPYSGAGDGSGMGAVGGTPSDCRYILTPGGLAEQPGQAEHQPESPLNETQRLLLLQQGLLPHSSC
Procedure, shortened: (§1)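 Enzyme, fluorescent peptide substrate and compound were mixed, and the reaction was started with ATP at each kinase's Km, in 50 mM HEPES pH 7.5, 10 mM MgCl2, 1 mM EGTA, 0.01% Brij 35, 1 mM DTT at RT. After 60 minutes EDTA quench, Eu-labelled phospho-specific antibody was added for 30 minutes, and IC50 was derived from TR-FRET signal loss.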

MERTK = target: T2, MERTK (Homo sapiens, UniProt Q12866); assay: TR-FRET kinase activity assay, MERTK; type: biochemical; details: for IC50: TR-FRET activity assay, ATP at Km, 60 minutes, read-out: Mer IC50; for FLT3/Mer ratio (FLT3 IC50/Mer IC50): ratio calculated as FLT3 IC50/Mer IC50
T2 sequence (Q12866 21-999): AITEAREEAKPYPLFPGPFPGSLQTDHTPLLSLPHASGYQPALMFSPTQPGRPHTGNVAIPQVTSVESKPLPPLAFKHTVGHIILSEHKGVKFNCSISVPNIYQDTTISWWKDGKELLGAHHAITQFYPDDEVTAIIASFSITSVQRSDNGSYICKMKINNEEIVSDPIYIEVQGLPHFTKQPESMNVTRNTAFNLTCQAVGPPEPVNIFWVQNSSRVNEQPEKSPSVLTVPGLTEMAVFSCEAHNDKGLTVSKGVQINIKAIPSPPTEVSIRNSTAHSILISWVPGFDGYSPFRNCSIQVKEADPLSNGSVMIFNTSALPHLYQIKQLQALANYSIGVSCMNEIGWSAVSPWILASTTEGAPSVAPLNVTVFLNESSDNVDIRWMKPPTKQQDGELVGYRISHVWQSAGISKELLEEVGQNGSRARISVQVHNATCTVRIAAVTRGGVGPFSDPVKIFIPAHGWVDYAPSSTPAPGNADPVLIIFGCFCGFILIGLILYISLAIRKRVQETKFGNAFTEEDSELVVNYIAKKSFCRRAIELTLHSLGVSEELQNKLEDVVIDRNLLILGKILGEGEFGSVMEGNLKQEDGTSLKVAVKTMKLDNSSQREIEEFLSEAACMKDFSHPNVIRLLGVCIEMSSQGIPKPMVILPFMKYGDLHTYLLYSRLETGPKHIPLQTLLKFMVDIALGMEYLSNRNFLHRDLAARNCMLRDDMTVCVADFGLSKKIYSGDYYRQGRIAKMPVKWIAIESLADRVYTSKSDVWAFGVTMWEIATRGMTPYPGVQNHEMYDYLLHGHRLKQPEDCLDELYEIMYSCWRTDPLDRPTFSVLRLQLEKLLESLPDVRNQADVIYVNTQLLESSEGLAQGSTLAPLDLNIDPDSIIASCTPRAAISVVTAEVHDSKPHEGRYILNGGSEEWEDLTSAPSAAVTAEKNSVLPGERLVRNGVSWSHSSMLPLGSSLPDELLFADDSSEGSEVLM
Procedure, shortened: as §1

IC50 (TYRO3) [nM] | IC50 (MERTK) [nM] | FLT3/Mer ratio (FLT3 IC50/Mer IC50) (MERTK) | Compound
≤ 100 | ≤ 100 | +++ (“+++” represents a ratio of >100) | COC[C@H](C)Nc1ncc2c(-c3cnn(C(C)(C)C(=O)N4Cc5nc(C)sc5C4)c3)cc([C@H]3CC[C@H](O)CC3)n2n1 [Compound 495]
≤ 100 | ≤ 100 | +++ (“+++” represents a ratio of >100) | COC[C@H](C)Nc1ncc2c(-c3cnn(C(C)(C)C(=O)C4CCc5sc(C)nc5C4)c3)cc([C@H]3CC[C@H](O)CC3)n2n1 (stereo partly drawn) [Compound 496]
≤ 100 | ≤ 100 | +++ (“+++” represents a ratio of >100) | COC[C@H](C)Nc1ncc2c(CC#N)cc([C@H]3CC[C@H](O)CC3)n2n1 [Compound 497]
≤ 100 | ≤ 100 | +++ (“+++” represents a ratio of >100) | COC[C@H](C)Nc1ncc2c(-c3cccc(C4CCc5nc(C)[nH]c5C4)c3)cc([C@H]3CC[C@H](O)CC3)n2n1 (stereo partly drawn) [Compound 498]
≤ 100 | ≤ 100 | +++ (“+++” represents a ratio of >100) | COC[C@H](C)Nc1ncc2c(-c3ccnc(N4CCN(C(=O)C5COC5)CC4)c3)cc([C@H]3CC[C@H](O)CC3)n2n1 [Compound 500]
≤ 100 | ≤ 100 | +++ (“+++” represents a ratio of >100) | COC[C@H](C)Nc1ncc2c(-c3cnn(C4COC4)c3)cc(C3CCOCC3)n2n1 [Compound 503]
≤ 100 | ≤ 100 | +++ (“+++” represents a ratio of >100) | COC[C@H](C)Nc1ncc2c(-c3ccnc(N4CCN(C(=O)OC5COC5)CC4)c3)cc([C@H]3CC[C@H](O)CC3)n2n1 [Compound 504]
≤ 100 | ≤ 100 | +++ (“+++” represents a ratio of >100) | COC[C@H](C)Nc1ncc2c(-c3ccnc(F)c3)cc([C@H]3CC[C@H](O)CC3)n2n1 [Compound 505]
≤ 100 | ≤ 100 | +++ (“+++” represents a ratio of >100) | COC[C@H](C)Nc1ncc2c(-c3cnn(CC(C)(C)N4CCOCC4)c3)cc([C@H]3CC[C@H](O)CC3)n2n1 [Compound 507]
≤ 100 | ≤ 100 | +++ (“+++” represents a ratio of >100) | COC[C@H](C)Nc1ncc2c(-c3conc3C)cc([C@H]3CC[C@H](O)CC3)n2n1 [Compound 508]
≤ 100 | ≤ 100 | +++ (“+++” represents a ratio of >100) | COC[C@H](C)Nc1ncc2c(-c3ccnc(N4CCc5nc(C)sc5C4)c3)cc([C@H]3CC[C@H](O)CC3)n2n1 [Compound 509]

Compound | IC50 (TYRO3) [nM] | IC50 (MERTK) [nM] | FLT3/Mer ratio (FLT3 IC50/Mer IC50) (MERTK)
C[C@@H](CC(F)(F)F)Nc1ncc2c(C3=C[C@@H]4CC[C@H](C3)N4)cc([C@H]3CC[C@H](O)CC3)n2n1 [Compound 499] | ≤ 100 | ≤ 100 | +++ (“+++” represents a ratio of >100)
COC[C@H](C)Nc1ncc2c(-c3cnn(C4COC4)c3)cc(-c3ccc(O)nc3)n2n1 [Compound 501] | ≤ 100 | ≤ 100 | ++ (“++” represents a ratio of between 10 and 100)
COC[C@H](C)Nc1ncc2c(-c3cnn(C4COC4)c3)cc(-c3ccc(OC)cc3)n2n1 [Compound 502] | ≤ 100 | ≤ 100 | ++ (“++” represents a ratio of between 10 and 100)
